Reference: patent publication US20090197932A1, “IMIDAZOLINYLMETHYL ARYL SULFONAMIDE” (priority 2008, published 2009)

Experiments:
[1] = test system: Female, Dutch Belted rabbits; assay: Anesthetized rabbit model: change in IUP and MAP, slope of IUP response; format: in vivo; details: i.v.
Procedure: In general, IUP is the intraurethral pressure and is measured as the 2 minute mean from the first peak of the urethral response (FIG. 1). MAP is the mean arterial blood pressure and is measured as the average blood pressure during the 2 minute section where IUP is measured. The durability is the slope of the IUP response in mmHg/min and is calculated immediately after the 2 minute IUP response for 5 minutes (2-7 minutes post the first peak) for the top 3 doses.
Surgery: Female, Dutch Belted rabbits (1.20-2.0 kg, Myrtle's Rabbitry, Tenn.) were anesthetized with isoflurane (3.0% at 2 to 4 L/min) and urethane (1.5 grams/kg, s.c.). In preparation for surgery, the rabbits were shaved, scrubbed (i.e., perineal area, ventral neck, and ventral, caudal surface of the abdomen) and were administered Ringers Lactate Solution (s.c.) to maintain fluids. […]
Experiment: The arterial cannula was connected to a P23XL, pressure transducer (Grass Technologies, West Warwick, R.I.) and the arterial pressure transducer and Unisensor urethral transducer catheter were connected to an Gould 13-6615-50 amplifier (Data Sciences International, St. Paul, Minn.) and Gould TA6000 recorder (Data Sciences International, St. Paul, Minn.) in parallel. All data was analyzed using Power Lab Chart version 5.0.2 (ADInstruments, Colorado Springs, Colo.) data acquisition system. […]
Measurements: The change in IUP and MAP from baseline were measured as well as the slope of the IUP response. MAP was first calculated according to the following formula, where Pd is diastolic pressure and Ps is systolic pressure: MAP=Pd+1/3(Ps−Pd). Pre-dose baseline values for IUP and MAP were assessed during a 2 min period just prior to vehicle or test compound administration. Post-dose values for IUP or MAP were determined during a 2 min period at the first peak in the IUP tracing following vehicle or test compound administration. The change in IUP and MAP induced by vehicle or test compound were then calculated by subtracting the pre-dose value from the post-dose value. […]

alpha-1A adrenoceptors = biological target: T1, alpha-1A adrenoceptors (Homo sapiens, UniProt P35348); assay: alpha-1A adrenoceptor partial agonist activity (intrinsic activity and pEC50)
T1 sequence (P35348 1-466): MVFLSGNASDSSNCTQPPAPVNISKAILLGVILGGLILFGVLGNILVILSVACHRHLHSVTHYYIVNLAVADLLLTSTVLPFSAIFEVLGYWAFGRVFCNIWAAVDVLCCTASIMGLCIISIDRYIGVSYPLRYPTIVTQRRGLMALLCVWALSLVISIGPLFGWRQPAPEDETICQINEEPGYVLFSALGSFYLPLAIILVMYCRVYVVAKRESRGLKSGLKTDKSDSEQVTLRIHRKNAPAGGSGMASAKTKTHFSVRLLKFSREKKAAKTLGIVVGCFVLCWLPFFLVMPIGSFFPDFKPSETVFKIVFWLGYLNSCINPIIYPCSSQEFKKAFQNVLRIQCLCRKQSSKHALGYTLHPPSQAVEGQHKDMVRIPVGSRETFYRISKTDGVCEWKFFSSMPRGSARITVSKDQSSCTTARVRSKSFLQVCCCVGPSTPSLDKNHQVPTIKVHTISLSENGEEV

[2] = test system: Female Yucatan Micro-Swine; assay: Conscious pig model: IUP, MAP and HR during infusion; format: in vivo; details: infusion via ear vein for two hours
Procedure: Sling Training: Female Yucatan Micro-Swine were trained to stay in a sling for up to 4 hours. Swine were exposed to progressively longer sling durations per IACUC sling-training guideline.
Surgical Instrumentation: Female Yucatan Micro-swine were instrumented with a telemetry device with both pressure and ECG monitoring capabilities (Data Sciences International St Paul Minn.). In addition, a Bardport low profile titanium VAP was placed subcutanteously for blood sampling. All devices were implanted by the surgical veterinarian at Roche Palo Alto. Briefly, the telemetry probe body was placed subcutaneously in the cervical region. The intra-arterial pressure catheter was advanced via the superficial cervical artery into the subclavian artery for blood pressure measurement. […]
Experiment: After the swine was fully awake and stable (usually approximately 1 hour post wake up), baseline blood pressure, IUP, and heart rate parameters were determined. […]
Data Generating and Analysis Systems: Cardiovascular readings were generated by the TL11M3-D70-PCP (Data Sciences International, St. Paul, Minn.) telemetry device and associated hardware. […] IUP was monitored by a solid state catheter connected to a TA6000 Polygraph (Data Sciences International, St. Paul, Minn.). […]

- maximum increase in MAP [1]: 9.75 mmHg
- intrinsic activity, or efficacy, as a partial agonist (alpha-1A adrenoceptors; ideally between 0.35 to 0.60): 0.38
- EC50 (alpha-1A adrenoceptors; read-out: affinity, or pEC50 value (converted)): 251 nM
SMILES: CS(=O)(=O)Nc1ccc(CC2=NCCN2)c(Br)c1Cl [Formula I, N-[3-Bromo-2-chloro-4-(4,5-dihydro-1H-imidazol-2-ylmethyl)-phenyl]-methanesulfonamide]
- selectivity for enhancement of intraurethral pressure (IUP) over blood pressure (MAP) ([1]; at the 10 mmHg change in IUP level (ED10 of MAP/ED10 of IUP)): 38 fold
- durability of IUP response over time ([1]; slope of IUP response 2-7 minutes post the first peak, top 3 doses): increased durability of IUP response over time
- IUP durability [2]: exceptional IUP durability
